Assay results: ChEMBL document CHEMBL1201862, “PubChem BioAssay data set” (2004)
Calls of active or inactive are those of the source.

Columns and labels:
Cytochrome P450 1A2 = target: T1, Cytochrome P450 1A2 (Homo sapiens, UniProt P05177);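 also: PubChem cytochrome P450 panel assay, CYP1A2 panel member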
T1 sequence (P05177 whole entry): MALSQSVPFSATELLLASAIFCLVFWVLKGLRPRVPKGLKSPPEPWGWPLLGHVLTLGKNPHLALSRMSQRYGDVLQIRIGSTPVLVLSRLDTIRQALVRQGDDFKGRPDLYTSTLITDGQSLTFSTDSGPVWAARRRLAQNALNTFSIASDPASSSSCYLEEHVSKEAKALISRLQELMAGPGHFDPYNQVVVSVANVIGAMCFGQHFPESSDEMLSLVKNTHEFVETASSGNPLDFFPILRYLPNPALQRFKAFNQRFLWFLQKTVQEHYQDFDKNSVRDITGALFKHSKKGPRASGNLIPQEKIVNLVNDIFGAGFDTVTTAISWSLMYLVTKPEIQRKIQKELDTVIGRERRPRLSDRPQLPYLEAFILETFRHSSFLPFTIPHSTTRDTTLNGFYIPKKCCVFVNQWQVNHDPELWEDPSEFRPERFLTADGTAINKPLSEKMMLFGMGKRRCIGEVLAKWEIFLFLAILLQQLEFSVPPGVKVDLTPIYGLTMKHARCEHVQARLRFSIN

Cytochrome P450 2C9 = Cytochrome P450 2C9 (Homo sapiens, UniProt P11712)
Cytochrome P450 2C19 = Cytochrome P450 2C19 (Homo sapiens, UniProt P33261); test: Cytochrome panel assay with activity outcomes. Panel member name: p450-cyp2c19 Compounds with AC50 equal or less than 10 uM are considered active; assay type: functional
[1] = blockers of CRF-binding protein–CRF-R2 complex – cell-based, uHTS hits, 384-well, dose response (AID 651639); assay type: functional, Homo sapiens; conditions: read-out: IC50_Mean
[2] = target: T2, Corticotropin-releasing factor receptor 2/Corticotropin-releasing factor-binding protein (Homo sapiens, UniProt P24387+Q13324); test: Dose Response confirmation of uHTS hits for small molecule antagonists of the CRF-binding protein and CRF-R2 receptor complex.; assay type: functional; conditions: read-out: IC50_Mean
T2 sequence (Q13324 whole entry): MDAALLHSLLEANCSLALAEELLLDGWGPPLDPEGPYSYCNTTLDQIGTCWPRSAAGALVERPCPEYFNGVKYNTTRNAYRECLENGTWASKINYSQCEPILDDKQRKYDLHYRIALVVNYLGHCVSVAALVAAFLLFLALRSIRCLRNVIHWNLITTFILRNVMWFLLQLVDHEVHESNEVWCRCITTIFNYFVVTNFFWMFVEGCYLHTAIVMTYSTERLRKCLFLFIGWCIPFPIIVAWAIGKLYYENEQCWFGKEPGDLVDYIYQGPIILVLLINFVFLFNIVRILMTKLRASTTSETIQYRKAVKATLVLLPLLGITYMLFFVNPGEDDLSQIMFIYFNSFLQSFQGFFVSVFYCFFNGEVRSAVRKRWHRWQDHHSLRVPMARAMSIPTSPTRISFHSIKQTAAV
T2 sequence (P24387 whole entry): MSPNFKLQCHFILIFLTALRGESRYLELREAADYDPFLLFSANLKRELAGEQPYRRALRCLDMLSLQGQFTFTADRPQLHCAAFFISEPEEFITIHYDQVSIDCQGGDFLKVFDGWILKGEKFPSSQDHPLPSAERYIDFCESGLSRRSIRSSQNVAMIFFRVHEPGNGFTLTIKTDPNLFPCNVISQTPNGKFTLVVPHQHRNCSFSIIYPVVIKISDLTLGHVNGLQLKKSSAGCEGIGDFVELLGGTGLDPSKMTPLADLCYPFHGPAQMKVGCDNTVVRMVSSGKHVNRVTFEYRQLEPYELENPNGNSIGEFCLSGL

[3] = target: T2, Corticotropin-releasing factor receptor 2/Corticotropin-releasing factor-binding protein; test: activators of CRF receptor 2 with binding protein – uHTS hits, confirmation (AID 602473); assay type: functional; conditions: read-out: EC50_Mean
[4] = HIV-1 Vif–A3G interaction blockers – biochemical, TR-FRET, GST-Vif 1-94, biotin-A3G peptide, dose response retest, primary screen (AID 1117319); assay type: functional;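 also: TR-FRET signal of purified GST-Vif binding a biotinylated A3G peptide; inhibitors lower the FRET signal by blocking Vif and A3G binding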
Cytochrome P450 2D6 = Cytochrome P450 2D6 (Homo sapiens, UniProt P10635);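 also: CYP2D6 member of a cytochrome P450 panel assay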
[5] = general mammalian cell viability loss – inhibitor set, cherry-pick, set 2, cytotoxicity control for miR-122 modulator project, dose response (AID 720697); assay type: functional, cell-based
[6] = reduction of Shn3 3'UTR-driven luciferase in osteoblasts – cell-based, Clone20 osteoblasts, firefly luciferase, cherry-picked, dose response (AID 624132); assay type: functional;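 also: firefly luciferase luminescence from reporter carrying the Shn3 3'UTR in osteoblasts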
[7] = Luminescence Cell-Based Dose Retest to Confirm Inhibitors of Cancer Stem Cells. [Related pubchem assays (depositor defined):AID2717, AID2721]; assay type: functional; conditions: Homo sapiens
[8] = non-specific 3'UTR reporter inhibition in Clone20-Shn3RL – cell-based, Renilla luciferase, cherry-picked, counter-screen for Shn3 inhibitor project, dose response (AID 624133); assay type: functional
[9] = loss of viability in HepG2 cells – cell-based, CellTiter-Glo, cherry-picked, cytotoxicity control for Shn3 inhibitor project, dose response (AID 624134); assay type: functional
[10] = HEK-293T viability loss after treatment – luminescence, T-cell screen hits, cytotoxicity control for TCR NF-kB inhibitor project, dose response (AID 489026); assay type: functional, cell-based;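 also: cells exposed to compound about 14 hours before the viability readout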
[11] = target: T3, Heat shock factor protein 1 (Mus musculus, UniProt P38532); test: enhancement of HSF1-driven luciferase signal – cell-based, NIH3T3, luminescence, dose retest, confirmation (AID 435004); assay type: functional;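 also: stress induced by proteasome inhibitor MG132 added 30 min after compound; luciferase reporter driven by HSF1 response element in NIH3T3 cells; actives raise luminescence as potentiators of the MG132 stress response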
T3 sequence (P38532 whole entry): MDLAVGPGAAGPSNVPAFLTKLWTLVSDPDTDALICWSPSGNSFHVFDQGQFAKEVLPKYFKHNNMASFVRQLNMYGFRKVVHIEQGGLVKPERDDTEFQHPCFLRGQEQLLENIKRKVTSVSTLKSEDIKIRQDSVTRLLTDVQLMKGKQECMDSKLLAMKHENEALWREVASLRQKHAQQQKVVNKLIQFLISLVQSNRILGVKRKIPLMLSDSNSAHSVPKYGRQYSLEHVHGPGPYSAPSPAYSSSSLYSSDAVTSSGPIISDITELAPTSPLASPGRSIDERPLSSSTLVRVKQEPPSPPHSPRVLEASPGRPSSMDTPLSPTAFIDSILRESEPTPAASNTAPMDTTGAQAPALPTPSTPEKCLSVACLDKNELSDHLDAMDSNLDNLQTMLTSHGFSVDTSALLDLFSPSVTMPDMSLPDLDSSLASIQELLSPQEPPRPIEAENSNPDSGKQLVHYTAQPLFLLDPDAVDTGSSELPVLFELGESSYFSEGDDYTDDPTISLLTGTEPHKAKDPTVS

Cytochrome P450 2C9, sequence (P11712 whole entry): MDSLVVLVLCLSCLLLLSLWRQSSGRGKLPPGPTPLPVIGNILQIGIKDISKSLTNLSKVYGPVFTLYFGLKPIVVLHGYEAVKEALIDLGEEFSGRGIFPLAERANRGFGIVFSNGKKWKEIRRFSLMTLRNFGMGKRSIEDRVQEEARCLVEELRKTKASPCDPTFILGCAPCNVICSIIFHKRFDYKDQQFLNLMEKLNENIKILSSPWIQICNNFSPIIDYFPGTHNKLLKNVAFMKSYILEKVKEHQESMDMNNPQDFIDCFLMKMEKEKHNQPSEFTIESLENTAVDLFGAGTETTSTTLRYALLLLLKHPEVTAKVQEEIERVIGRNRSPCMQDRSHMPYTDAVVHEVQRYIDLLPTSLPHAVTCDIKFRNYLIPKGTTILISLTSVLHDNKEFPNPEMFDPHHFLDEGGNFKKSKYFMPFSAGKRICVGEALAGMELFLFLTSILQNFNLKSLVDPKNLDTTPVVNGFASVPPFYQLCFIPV
Cytochrome P450 2D6, sequence (P10635 whole entry): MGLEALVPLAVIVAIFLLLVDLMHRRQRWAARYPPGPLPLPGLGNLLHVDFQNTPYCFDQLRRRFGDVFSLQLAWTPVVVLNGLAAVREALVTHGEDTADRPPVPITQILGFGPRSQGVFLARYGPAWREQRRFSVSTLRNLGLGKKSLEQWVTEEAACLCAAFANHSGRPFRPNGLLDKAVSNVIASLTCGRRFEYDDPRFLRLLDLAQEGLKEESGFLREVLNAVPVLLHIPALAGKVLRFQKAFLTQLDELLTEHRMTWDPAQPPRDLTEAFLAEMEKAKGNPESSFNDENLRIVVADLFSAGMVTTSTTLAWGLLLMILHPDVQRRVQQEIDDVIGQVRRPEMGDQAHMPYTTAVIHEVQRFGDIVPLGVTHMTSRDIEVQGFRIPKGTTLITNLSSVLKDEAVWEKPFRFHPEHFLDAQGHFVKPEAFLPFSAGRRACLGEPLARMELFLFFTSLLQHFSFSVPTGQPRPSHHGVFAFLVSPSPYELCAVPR
Cytochrome P450 2C19, sequence (P33261 whole entry): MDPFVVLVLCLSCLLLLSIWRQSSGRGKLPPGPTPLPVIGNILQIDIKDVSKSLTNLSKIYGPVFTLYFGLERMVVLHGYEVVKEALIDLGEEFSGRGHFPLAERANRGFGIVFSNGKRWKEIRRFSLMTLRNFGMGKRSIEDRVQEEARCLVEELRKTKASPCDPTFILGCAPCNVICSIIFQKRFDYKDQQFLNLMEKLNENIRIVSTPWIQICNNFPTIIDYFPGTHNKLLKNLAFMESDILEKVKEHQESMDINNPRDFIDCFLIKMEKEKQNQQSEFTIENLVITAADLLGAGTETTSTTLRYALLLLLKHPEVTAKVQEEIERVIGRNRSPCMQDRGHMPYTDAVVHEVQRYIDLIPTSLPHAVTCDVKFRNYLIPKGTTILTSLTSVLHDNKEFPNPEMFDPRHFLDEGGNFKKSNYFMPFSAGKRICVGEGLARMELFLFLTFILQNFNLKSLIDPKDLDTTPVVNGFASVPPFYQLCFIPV

Row | IC50 [1] | IC50 [2] | EC50 [3] | IC50 [4] | SMILES | also measured
1 |  |  |  |  | O=C(c1sc2ccccc2c1Cl)N1CCN(c2ccc(F)cc2)CC1 | AC50 (Cytochrome P450 1A2): 2.82 µM (inconclusive); AC50 (Cytochrome P450 2C9): inconclusive; AC50 (Cytochrome P450 2C19): 0.0891 µM (inconclusive)
2 | > 20 µM (inactive) | 38.9 µM (active) | > 53 µM (inactive) |  | COC(=O)c1cc(OC)c(OC)cc1NC(=O)c1ccco1 | 
3 | > 20 µM (inactive) | 16.1 µM (active) | > 53 µM (inactive) |  | COc1ccc(/C=C/C(=O)Nc2c(C)nn(C)c2C)cc1COc1ccc(Br)cc1 | 
4 |  |  |  | > 100 µM (active) | CCN1C(=O)CS/C1=C(\C#N)S(=O)(=O)c1ccccc1 | 
5 | > 20 µM (inactive) | 16.3 µM (active) | > 53 µM (inactive) |  | Cc1cc(C)c(C)c(S(=O)(=O)Nc2ccccc2C(=O)O)c1C | 
6 |  |  |  |  | CCCCNC(=O)Cc1coc2ccc3ccccc3c12 | AC50 (Cytochrome P450 2C9): inconclusive
7 |  |  |  | > 100 µM (active) | CCc1c(C)sc(NC(=O)c2cc(-c3ccco3)on2)c1C#N | 
8 |  |  |  |  | Cc1noc(C)c1-c1nccc(NC2CC2)n1 | AC50 (Cytochrome P450 2C9): inconclusive; AC50 (Cytochrome P450 2D6): 31.6 µM (inconclusive)
9 |  |  |  |  | Cc1cc2n(n1)C(c1cn(-c3ccccc3)nc1C)Nc1c(C)cccc1-2 (centres undefined) | AC50 [5]: 0.562 µM (active)
10 |  |  |  | > 100 µM (active) | CCOC(=O)CSc1nnc(-c2ccccc2NC(=O)c2ccccc2)o1 | 
11 |  |  |  |  | NC(=O)CC(NC(=O)c1ccc(Br)cc1)c1ccc(N2CCCCCC2)c([N+](=O)[O-])c1 (centres undefined) | AC50 [6]: 7.66 µM (active); AC50 [7]: 15.4 µM (active); AC50 [8]: 26.6 µM (active); AC50 [9]: > 70 µM (inactive); IC50 [10]: > 80 µM (inactive); EC50 [11]: 38.3 µM (active)
12 | > 20 µM (inactive) | 7.94 µM (active) | 15.4 µM (active) |  | c1ccc2c(c1)OCCOCCOCCOCCOc1ccccc1OCCOCCOCCO2 | 
13 |  |  |  | > 100 µM (active) | CC(=O)Nc1c(O)nc(SCC(=O)Nc2ccc(C(C)=O)cc2)nc1O | 
